Laboratory results: patent US20220249622A1, “METHOD FOR PROTECTING BRAIN NEURON CELLS WITH BIOACTIVE COMPOUND” (TCI CO., LTD., priority 2021, published 2022)

What was measured:
[1] = tested on: human brain neurons SH-SYSY; assay: Inhibitory effect on brain neuron damage caused by MPP+ (MTT cell viability); format: cell-based; details: 5 μM MPP+ alone (control group), 48 hours
Method: The cells, culture medium, MTT apoptosis detection solution, ELISA reader, and statistical method of cell viability used in this example are the same as in Example 5, and details are not described herein again.
The SII-SYSY cells were seeded at a density of 5×10^3 cells per well into a 96-well culture plate and incubated for 24 hours at 37° C. and 5% CO2.
The culture medium was removed from each well. The SH-SYSY cells were divided into a blank group, a control group, and an experimental group. The fresh culture medium was added into the wells of the blank group. The fresh culture medium containing 5 μM MPP+ was added into the wells of the control group. The fresh culture medium containing 5 μM MPP+ and 1 mg/mL catfish skin collagen peptide powder from Example 1 was added into the wells of the experimental group. Each group was triplicated and incubated at 37° C. for 48 hours.
Then, 15 μL of 5 MTT apoptosis detection solution was added to each group for 3-4 h at 37° C. and 5% CO2.
The culture medium in each well was removed. In each group, 50 μL of DMSO was added to dissolve the purple crystals of formazan. Finally, an absorbance (at 570 nm) of each group was measured by an ELISA reader to analyze the cell viability of each group.
Taking the value of the blank group as 100% of cell viability, each value of the control group and the experimental group was converted into cell viability (%).

[2] = tested on: mouse brain neuroblastoma cells Nero2a; assay: Activity of mitochondria of neuron cells (JC-1 mitochondrial membrane potential assay, flow cytometer); format: cell-based; details: 24 hours, control group = 100%
From the text: 1. Cell strain: mouse brain neuroblastoma. cells Nero2a, from the American Type
Culture Collection (ATCC®, Cat. CCL-131), hereinafter referred to as Nero2a cells.
2. Culture medium: Dulbecco's modified Eagle's medium (DMEM, purchased from Gibco, Cat. 11965-092) containing 10 vol % of Fetal Bovine Serum (FBS, purchased from Gibco, 10437-028) and 3.7 g/L of sodium bicarbonate (purchased from Sigma, S5761-500G).
4. Mitochondrial n embranepotential assay kit (MitoScreen (.IC-1) kit purchased from BD, model 551302): with ,IC-1 dye (lyophilized) and 10× assay buffer. Before use, the assay buffer was diluted 10-fold with 1 PBS solution to form 1× assay buffer, 130 μl of dimethyl sulfoxide (DMSO) was added into the JC-1 dye (lyophilized) to form a JC-1 stock solution. Then, the stock solution was diluted to 1/100 with the 1 × assay buffer to form a JC-1 working reagent
6. Flow cytometer: purchased from BD Pharmingen, model BDTM Accuri C6 Plus.
The Nero2a cells were seeded into a 6-well culture plate at a density of […] cells per well, and 2 ml., of the above-mentioned fresh culture medium was added to each well and incubated for 24 hours at 37° C. and 5% CO2.
Remove the culture medium from each well. The Nero2a cells were divided into a control group and experimental groups 1-5. Control group was added with the fresh culture medium. Experimental group I was added with fresh culture medium containing 50 μg/mL synthesized peptide of SEQ .117 NO :1; experimental group 2 was added with fresh culture medium containing 50 μg/mL synthesized peptide of SEQ ID NO:2; experimental group 3 was added with fresh culture medium containing 50 μg/mL synthesized peptide of SEQ ID NO 3, experimental group 4 was added with fresh culture medium containing 25 μg/mL synthesized peptide of SEQ ID NO:4; and experimental group 5 was added with fresh culture medium containing 1 mg/mL of catfish skin collagen peptide powder from Example. 1. Each group was triplicated and incubated at 37C. for 24 hours.
In each group, the culture medium was removed, and then the cells were washed twice with the PBS solution. Then, 200 μL of trypsin solution was added to react with the cells for 3 min, and 6 mL of fresh culture medium was added to stop the reaction. […]
The cell solution of the control group and the cell solution of each experimental group were analyzed for the activity of mitochondria by using a flow cytometer.
Standard deviations were calculated by an STDEV formula of Excel software, and whether statistically significant differences existed or not was analyzed by one-tail student t-test in the Excel software. […] The p value of each group was calculated compared to the control group. […]

| Molecule | relative accumulation of JC-1 ([2]; 50 μg/mL synthesized peptide) | also measured |
| --- | --- | --- |
| C[n+]1ccc(-c2ccccc2)cc1 [MPP+, 1-methyl-4-phenylpyridin-1-ium] | – | cell viability ([1]; SH-SYSY cells, blank group = 100%): 86%; cell viability reduced by ([1]; vs blank group): 14% |
| GRGGFGGRGGFG (listed as Pangasius bocourti) [SEQ ID NO: 3, synthesized peptide, peptide fragment of nucleolin from catfish skin] | 120.95% | – |
| LVMGFHPQYL (listed as Pangasius bocourti) [SEQ ID NO: 4, synthesized peptide, peptide fragment of sestrin 1 from catfish skin] | – | relative accumulation of JC-1 ([2]; 25 μg/mL synthesized peptide): 115.74% |
| NGTGPQNH (listed as Pangasius bocourti) [SEQ ID NO: 1] | 146.90% | – |
| TAELEPLTDG (listed as Pangasius bocourti) [SEQ ID NO: 2, synthesized peptide, peptide fragment of NAD synthetase 1 from catfish skin] | 150,17% | – |
